Assay results taken from PubChem BioAssay AID1963851 (Molecular Pharmacology Branch, DTP, NCI, 2024).

Tested on: 188146-221-R-J1-PDC complex spheroid viability
Test: Anticancer human tumor 188146-221-R-J1-PDC patient-derived colon adenocarcinoma cell line growth inhibition [POLQ]
Conditions: for IC50: curve of first compound; for viability, T/C: stronger effect = lower value
How it was run: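 PDC + HUVEC + MSC complex spheroids; POLQ inhibitors ± partner drugs; top conc. at/near clinical Cmax, else 10 microM (SN-38 1 microM), half-log dilutions; 37 degrees C, 5% CO2.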

[1] = second compound 0.0316 µM, first compound 0.0316 µM
[2] = second compound 0.0316 µM, first compound 0.1 µM
[3] = second compound 0.0316 µM, first compound 0.316 µM
[4] = second compound 0.0316 µM, first compound 1 µM
[5] = second compound 0.0316 µM, first compound 3.16 µM
[6] = second compound 0.0316 µM, first compound 10 µM
[7] = second compound 0.1 µM, first compound 0.0316 µM
[8] = second compound 0.1 µM, first compound 0.1 µM
[9] = second compound 0.1 µM, first compound 0.316 µM
[10] = second compound 0.1 µM, first compound 1 µM
[11] = second compound 0.1 µM, first compound 3.16 µM
[12] = second compound 0.1 µM, first compound 10 µM
[13] = second compound 0.316 µM, first compound 0.0316 µM
[14] = second compound 0.316 µM, first compound 0.1 µM
[15] = second compound 0.316 µM, first compound 0.316 µM
[16] = second compound 0.316 µM, first compound 1 µM
[17] = second compound 0.316 µM, first compound 3.16 µM
[18] = second compound 0.316 µM, first compound 10 µM
[19] = second compound 1 µM, first compound 0.0316 µM
[20] = second compound 1 µM, first compound 0.1 µM
[21] = second compound 1 µM, first compound 0.316 µM
[22] = second compound 1 µM, first compound 1 µM
[23] = second compound 1 µM, first compound 3.16 µM
[24] = second compound 1 µM, first compound 10 µM
[25] = second compound 3.16 µM, first compound 0.0316 µM
[26] = second compound 3.16 µM, first compound 0.1 µM
[27] = second compound 3.16 µM, first compound 0.316 µM
[28] = second compound 3.16 µM, first compound 1 µM
[29] = second compound 3.16 µM, first compound 3.16 µM
[30] = second compound 3.16 µM, first compound 10 µM
[31] = second compound 10 µM, first compound 0.0316 µM
[32] = second compound 10 µM, first compound 0.1 µM
[33] = second compound 10 µM, first compound 0.316 µM
[34] = second compound 10 µM, first compound 1 µM
[35] = second compound 10 µM, first compound 3.16 µM
[36] = second compound 10 µM, first compound 10 µM
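Further: spheroids exposed to compounds for seven days.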
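Wherever viability, T/C is given: 100% = DMSO vehicle control viability.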

SMILES: C#Cc1c(F)ccc2cc(O)cc(-c3ncc4c(N5CC6CCC(C5)N6)nc(OCC56CCCN5CC(F)C6)nc4c3F)c12 (stereo unspecified) + Cc1cccc(N(C)C(=O)C2C(O)CCN2c2nc(C)cc(C(F)(F)F)c2C#N)c1
- IC50 (second compound 0.0316 µM): > 10 µM
- IC50 (second compound 0.1 µM): > 10 µM
- IC50 (second compound 0.316 µM): > 10 µM
- IC50 (second compound 1 µM): > 10 µM
- IC50 (second compound 3.16 µM): > 10 µM
- IC50 (second compound 10 µM): > 10 µM
- viability, T/C [1]: 104%
- viability, T/C [2]: 105%
- viability, T/C [3]: 104%
- viability, T/C [4]: 97.9%
- viability, T/C [5]: 88.6%
- viability, T/C [6]: 90.6%
- viability, T/C [7]: 101%
- viability, T/C [8]: 112%
- viability, T/C [9]: 101%
- viability, T/C [10]: 95.5%
- viability, T/C [11]: 96%
- viability, T/C [12]: 92.6%
- viability, T/C [13]: 108%
- viability, T/C [14]: 106%
- viability, T/C [15]: 96.9%
- viability, T/C [16]: 85.3%
- viability, T/C [17]: 93.2%
- viability, T/C [18]: 84.1%
- viability, T/C [19]: 111%
- viability, T/C [20]: 101%
- viability, T/C [21]: 94.9%
- viability, T/C [22]: 93.4%
- viability, T/C [23]: 89.8%
- viability, T/C [24]: 85.5%
- viability, T/C [25]: 99.7%
- viability, T/C [26]: 98.2%
- viability, T/C [27]: 96.8%
- viability, T/C [28]: 74.9%
- viability, T/C [29]: 95.8%
- viability, T/C [30]: 98.2%
- viability, T/C [31]: 107%
- viability, T/C [32]: 75%
- viability, T/C [33]: 99.8%
- viability, T/C [34]: 90%
- viability, T/C [35]: 88.6%
- viability, T/C [36]: 78.3%

SMILES: C=CC(=O)N1CCN(c2nc(=O)n(-c3c(C)ccnc3C(C)C)c3nc(-c4c(O)cccc4F)c(F)cc23)C(C)C1 (stereo unspecified) + Cc1cccc(N(C)C(=O)C2C(O)CCN2c2nc(C)cc(C(F)(F)F)c2C#N)c1
- IC50 (second compound 0.0316 µM): > 10 µM
- IC50 (second compound 0.1 µM): > 10 µM
- IC50 (second compound 0.316 µM): > 10 µM
- IC50 (second compound 1 µM): > 10 µM
- IC50 (second compound 3.16 µM): > 10 µM
- IC50 (second compound 10 µM): > 10 µM
- viability, T/C [1]: 104%
- viability, T/C [2]: 103%
- viability, T/C [3]: 93%
- viability, T/C [4]: 107%
- viability, T/C [5]: 97%
- viability, T/C [6]: 83.8%
- viability, T/C [7]: 108%
- viability, T/C [8]: 105%
- viability, T/C [9]: 91.9%
- viability, T/C [10]: 103%
- viability, T/C [11]: 92.8%
- viability, T/C [12]: 89%
- viability, T/C [13]: 101%
- viability, T/C [14]: 105%
- viability, T/C [15]: 103%
- viability, T/C [16]: 95.5%
- viability, T/C [17]: 85.9%
- viability, T/C [18]: 81.5%
- viability, T/C [19]: 95.6%
- viability, T/C [20]: 107%
- viability, T/C [21]: 102%
- viability, T/C [22]: 104%
- viability, T/C [23]: 84.7%
- viability, T/C [24]: 73.3%
- viability, T/C [25]: 98.7%
- viability, T/C [26]: 104%
- viability, T/C [27]: 97.3%
- viability, T/C [28]: 100%
- viability, T/C [29]: 94.6%
- viability, T/C [30]: 83.4%
- viability, T/C [31]: 100%
- viability, T/C [32]: 82.3%
- viability, T/C [33]: 91.8%
- viability, T/C [34]: 84.8%
- viability, T/C [35]: 92.6%
- viability, T/C [36]: 77.2%

SMILES: CC1COCCN1c1cc(C2(O)CC3CCC(C2)O3)c2cnn(-c3ccn[nH]3)c2n1 (stereo unspecified) + Cc1cccc(N(C)C(=O)C2C(O)CCN2c2nc(C)cc(C(F)(F)F)c2C#N)c1
- IC50 (second compound 0.0316 µM): 0.422 µM
- IC50 (second compound 0.1 µM): 0.322 µM
- IC50 (second compound 0.316 µM): 0.365 µM
- IC50 (second compound 1 µM): 0.426 µM
- IC50 (second compound 3.16 µM): 0.259 µM
- IC50 (second compound 10 µM): 0.19 µM
- viability, T/C [1]: 83.2%
- viability, T/C [2]: 67.8%
- viability, T/C [3]: 61.5%
- viability, T/C [4]: 27.6%
- viability, T/C [5]: 19.2%
- viability, T/C [6]: 7.58%
- viability, T/C [7]: 95.3%
- viability, T/C [8]: 75.7%
- viability, T/C [9]: 51.1%
- viability, T/C [10]: 26.6%
- viability, T/C [11]: 16.8%
- viability, T/C [12]: 7.79%
- viability, T/C [13]: 91.9%
- viability, T/C [14]: 80.2%
- viability, T/C [15]: 52.4%
- viability, T/C [16]: 27.4%
- viability, T/C [17]: 17.4%
- viability, T/C [18]: 9.2%
- viability, T/C [19]: 89.2%
- viability, T/C [20]: 71.9%
- viability, T/C [21]: 56.1%
- viability, T/C [22]: 36%
- viability, T/C [23]: 19.2%
- viability, T/C [24]: 7.67%
- viability, T/C [25]: 94.8%
- viability, T/C [26]: 68.4%
- viability, T/C [27]: 46.4%
- viability, T/C [28]: 27.3%
- viability, T/C [29]: 22.8%
- viability, T/C [30]: 8.6%
- viability, T/C [31]: 80.7%
- viability, T/C [32]: 60.3%
- viability, T/C [33]: 43.4%
- viability, T/C [34]: 24%
- viability, T/C [35]: 23.9%
- viability, T/C [36]: 9.35%
